Results on one molecule are retold here after BindingDB's records for doi:10.1021/jm980254j (Georgetown University Medical Center, 1998).

The assay addresses phosphoinositide-specific phospholipase C (Bos taurus). Briefly: In vitro inhibitory activity against bovine Phosphoinositide specific phospholipase C (PI-PLC).

What is called IC50 is the midpoint of a concentration-inhibition curve. Lower therefore signals higher potency. Consider `CCCCCCCCCCCCCCCC(=O)OC[C@H](COP(=O)(O)OC1C(O)C(O)C(O)C(F)C1O)OC(=O)CCCCCCCCCCCCCCC` (stereo partly drawn) [Hexadecanoic acid (R)-2-[(3-fluoro-2,4,5,6-tetrahydroxy-cyclohexyloxy)-hydroxy-phosphoryloxy]-1-hexadecanoyloxymethyl-ethyl ester], for which half-maximal inhibition (IC50) required 8 µM.
